Columns and labels:
Rhipicephalus sanguineus = test: In vitro contact activity against adult ticks (coated vial), R. sanguineus; conditions: for mortality at 0.006 µM: Trial 3, dose 0.006 μM; for mortality at 0.024 µM: Trial 3, dose 0.024 μM; for mortality at 0.098 µM: Trial 3, dose 0.098 μM; for mortality at 0.39 µM: Trial 3, dose 0.39 μM; for mortality at 1.56 µM: Trial 3, dose 1.56 μM; for mortality at 6.25 µM: Trial 3, dose 6.25 μM; for mortality at 25 µM: Trial 3, dose 25 μM; for mortality at 100 µM: Trial 3, dose 100 μM
Description: Rhipicephalus sanguineus, Dermacentor variabilis, Amblyomma americanum, (Ecto Services, Inc., Henderson, N.C.) and Ixodes scapularis (Oklahoma State University, Stillwater, Okla.) aged between 2-4 weeks post molt were held in an environmental chamber at 24° C., 80% humidity with 12-hour light/dark cycles.
For tick assays, vial caps were pre-drilled with a single hole in the center of each cap to allow air exchange. A filter paper (Whatman Grade 540 2.1 cm) was placed in the lid of each vial. An aliquot from each compound stock was added to an acetone/triton solution to achieve the desired top doses for the study. Serial dilutions were conducted from the top dose (i.e. 100 ppm) to achieve the desired titration range for EC50 and EC90 determination. For R. sanguineus, D. variabilis, and A. americanum, the final DMSO concentration in each test vial was 0.5%. For I. scapularis, compounds were solubilized directly in an acetone/triton solution due to I. scapularis' sensitivity to DMSO. A 459 μL aliquot of each compound formulation was transferred to a vial containing a Whatman Grade 540 2.1 cm filter paper. Vials were immediately placed on an unheated roller unit to allow for an even coating of the vial walls. After vials were coated, 41 μL of each compound formulation was added to the filter paper embedded in each vial cap. Each cap was allowed to dry. The vials were loosely capped and allowed to dry for a minimum of four hours in a chemical fume hood.
Compounds tested were: the C1 racemate, C1 (R) enantiomer, and the C1 (S) enantiomer. For Trial 3, the C1 (R) enantiomer and the C1 (S) enantiomer were further chiral purified to achieve >99% purity.
Ten adult ticks were added to each vial and held at 24° C., 80% humidity with 12-hour light/dark cycles. Adult ticks were assessed for percent mortality at various time points between 2 hours and 48 hours post infestation. Ticks were stimulated on a heated roller unit and evaluated. Ticks showing no movement, or very slow and uncoordinated movement were noted as dead.

Ctenocephalides felis = test: In vitro ingestion activity against fleas (artificial feeding, bovine blood); conditions: for mortality at 0.003 ppm: Trial 3, dose 0.003 ppm; for mortality at 0.012 ppm: Trial 3, dose 0.012 ppm; for mortality at 0.049 ppm: Trial 3, dose 0.049 ppm; for mortality at 0.2 ppm: Trial 3, dose 0.20 ppm; for mortality at 0.78 ppm: Trial 3, dose 0.78 ppm; for mortality at 3.125 ppm: Trial 3, dose 3.125 ppm; for mortality at 12.5 ppm: Trial 3, dose 12.5 ppm; for mortality at 50 ppm: Trial 3, dose 50 ppm
Description: Ctenocephalides felis (Avista Pharma, Inc., RTP, NC), 1-7days post hatch, held in an environmental chamber at 24° C., 85% humidity.
For flea ingestion tests, serial dilutions of the compound stock were performed using DMSO to achieve the desired range for EC50 and EC90 determination. An aliquot of each compound dilution was added to organic bovine blood with a final DMSO concentration of 0.5% and placed in an artificial feeding container.
Compounds tested were C1 racemate, the C1 (R) enantiomer, and the C1 (S) enantiomer. For Trial 3, the C1 (R) enantiomer and the C1 (S) enantiomer were further chiral purified to achieve >99% purity.
For both contact and ingestion assays, ten newly emerged unfed adult fleas, 0-7 days old Ctenocephalides felis, from a laboratory colony, were aspirated into each vial or cage. The test vials for contact assays were held in an environmental chamber at 24° C., 80% humidity with light/dark cycles (12 hours each). The cages for flea ingestion assays were held in a temperature-controlled artificial feeding apparatus to allow continual access to organic bovine blood containing the desired concentration of compound. Fresh aliquots of compound-spiked bovine blood were provided daily for the duration of the study.
Fleas were evaluated for percent mortality at various time points between 2 hours and 48 hours post infestation. Fleas showing normal movement and/or jumping ability were considered viable and those showing no movement after tapping the vials were scored as dead.

`O=C(CC(F)(F)F)N1CC2(C1)OCc1cc(C3=NS[C@](c4cc(Cl)c(F)c(Cl)c4)(C(F)(F)F)C3)ccc12` [C1 (R) enantiomer, (R)-1-[6-[5-(3,5-dichloro-4-fluoro-phenyl)-5-(trifluoromethyl)-4H-isothiazol-3-yl]spiro[1H-isobenzofuran-3,3′-azetidine]-1′-yl]-3,3,3-trifluoro-propan-1-one] showed a mortality at 0.006 µM (Rhipicephalus sanguineus; 2 h, Rep1) of 0%, a mortality at 0.006 µM (Rhipicephalus sanguineus; 2 h, Rep2) of 0% and a mortality at 0.024 µM (Rhipicephalus sanguineus; 2 h, Rep1) of 0%. It also gave a mortality at 0.024 µM (Rhipicephalus sanguineus; 2 h, Rep2) of 0%, a mortality at 0.098 µM (Rhipicephalus sanguineus; 2 h, Rep1) of 0% and a mortality at 0.098 µM (Rhipicephalus sanguineus; 2 h, Rep2) of 0%. For the same compound, the mortality at 0.39 µM (Rhipicephalus sanguineus; 2 h, Rep1) was 0%, the mortality at 0.39 µM (Rhipicephalus sanguineus; 2 h, Rep2) was 0% and the mortality at 1.56 µM (Rhipicephalus sanguineus; 2 h, Rep1) was 0%. It also gave a mortality at 1.56 µM (Rhipicephalus sanguineus; 2 h, Rep2) of 0%, a mortality at 6.25 µM (Rhipicephalus sanguineus; 2 h, Rep1) of 0% and a mortality at 6.25 µM (Rhipicephalus sanguineus; 2 h, Rep2) of 0%. It also gave a mortality at 25 µM (Rhipicephalus sanguineus; 2 h, Rep1) of 0%, a mortality at 25 µM (Rhipicephalus sanguineus; 2 h, Rep2) of 0% and a mortality at 100 µM (Rhipicephalus sanguineus; 2 h, Rep1) of 0%. The mortality at 100 µM (Rhipicephalus sanguineus; 2 h, Rep2) was 0%, the mortality at 0.006 µM (Rhipicephalus sanguineus; 6 h, Rep1) was 0% and the mortality at 0.006 µM (Rhipicephalus sanguineus; 6 h, Rep2) was 0%. The mortality at 0.024 µM (Rhipicephalus sanguineus; 6 h, Rep1) was 0%, the mortality at 0.024 µM (Rhipicephalus sanguineus; 6 h, Rep2) was 0% and the mortality at 0.098 µM (Rhipicephalus sanguineus; 6 h, Rep1) was 0%. For the same compound, the mortality at 0.098 µM (Rhipicephalus sanguineus; 6 h, Rep2) was 0%, the mortality at 0.39 µM (Rhipicephalus sanguineus; 6 h, Rep1) was 0% and the mortality at 0.39 µM (Rhipicephalus sanguineus; 6 h, Rep2) was 0%. The mortality at 1.56 µM (Rhipicephalus sanguineus; 6 h, Rep1) was 0%, the mortality at 1.56 µM (Rhipicephalus sanguineus; 6 h, Rep2) was 0% and the mortality at 6.25 µM (Rhipicephalus sanguineus; 6 h, Rep1) was 0%. For the same compound, the mortality at 6.25 µM (Rhipicephalus sanguineus; 6 h, Rep2) was 0%, the mortality at 25 µM (Rhipicephalus sanguineus; 6 h, Rep1) was 0% and the mortality at 25 µM (Rhipicephalus sanguineus; 6 h, Rep2) was 0%. It also gave a mortality at 100 µM (Rhipicephalus sanguineus; 6 h, Rep1) of 0%, a mortality at 100 µM (Rhipicephalus sanguineus; 6 h, Rep2) of 0% and a mortality at 0.006 µM (Rhipicephalus sanguineus; 12 h, Rep1) of 0%. The mortality at 0.006 µM (Rhipicephalus sanguineus; 12 h, Rep2) was 0%, the mortality at 0.024 µM (Rhipicephalus sanguineus; 12 h, Rep1) was 0% and the mortality at 0.024 µM (Rhipicephalus sanguineus; 12 h, Rep2) was 0%. It also gave a mortality at 0.098 µM (Rhipicephalus sanguineus; 12 h, Rep1) of 0%, a mortality at 0.098 µM (Rhipicephalus sanguineus; 12 h, Rep2) of 0% and a mortality at 0.39 µM (Rhipicephalus sanguineus; 12 h, Rep1) of 0%. The mortality at 0.39 µM (Rhipicephalus sanguineus; 12 h, Rep2) was 0%, the mortality at 1.56 µM (Rhipicephalus sanguineus; 12 h, Rep1) was 0% and the mortality at 1.56 µM (Rhipicephalus sanguineus; 12 h, Rep2) was 0%. It also gave a mortality at 6.25 µM (Rhipicephalus sanguineus; 12 h, Rep1) of 0%, a mortality at 6.25 µM (Rhipicephalus sanguineus; 12 h, Rep2) of 0% and a mortality at 25 µM (Rhipicephalus sanguineus; 12 h, Rep1) of 0%. It also gave a mortality at 25 µM (Rhipicephalus sanguineus; 12 h, Rep2) of 0%, a mortality at 100 µM (Rhipicephalus sanguineus; 12 h, Rep1) of 0% and a mortality at 100 µM (Rhipicephalus sanguineus; 12 h, Rep2) of 0%. For the same compound, the mortality at 0.003 ppm (Ctenocephalides felis; 6 h, Rep1) was 0%, the mortality at 0.003 ppm (Ctenocephalides felis; 6 h, Rep2) was 0% and the mortality at 0.012 ppm (Ctenocephalides felis; 6 h, Rep1) was 0%. For the same compound, the mortality at 0.012 ppm (Ctenocephalides felis; 6 h, Rep2) was 0%, the mortality at 0.049 ppm (Ctenocephalides felis; 6 h, Rep1) was 0% and the mortality at 0.049 ppm (Ctenocephalides felis; 6 h, Rep2) was 0%. The mortality at 0.2 ppm (Ctenocephalides felis; 6 h, Rep1) was 0%, the mortality at 0.2 ppm (Ctenocephalides felis; 6 h, Rep2) was 0% and the mortality at 0.78 ppm (Ctenocephalides felis; 6 h, Rep1) was 0%. It also gave a mortality at 0.78 ppm (Ctenocephalides felis; 6 h, Rep2) of 0%, a mortality at 3.125 ppm (Ctenocephalides felis; 6 h, Rep1) of 0% and a mortality at 3.125 ppm (Ctenocephalides felis; 6 h, Rep2) of 20%. The mortality at 12.5 ppm (Ctenocephalides felis; 6 h, Rep1) was 80%, the mortality at 12.5 ppm (Ctenocephalides felis; 6 h, Rep2) was 40% and the mortality at 50 ppm (Ctenocephalides felis; 6 h, Rep1) was 100%. For the same compound, the mortality at 50 ppm (Ctenocephalides felis; 6 h, Rep2) was 100%, the mortality at 0.003 ppm (Ctenocephalides felis; 24 h, Rep1) was 0% and the mortality at 0.003 ppm (Ctenocephalides felis; 24 h, Rep2) was 0%. The mortality at 0.012 ppm (Ctenocephalides felis; 24 h, Rep1) was 0%, the mortality at 0.012 ppm (Ctenocephalides felis; 24 h, Rep2) was 0% and the mortality at 0.049 ppm (Ctenocephalides felis; 24 h, Rep1) was 0%. The mortality at 0.049 ppm (Ctenocephalides felis; 24 h, Rep2) was 0%, the mortality at 0.2 ppm (Ctenocephalides felis; 24 h, Rep1) was 0% and the mortality at 0.2 ppm (Ctenocephalides felis; 24 h, Rep2) was 0%. It also gave a mortality at 0.78 ppm (Ctenocephalides felis; 24 h, Rep1) of 0%, a mortality at 0.78 ppm (Ctenocephalides felis; 24 h, Rep2) of 0% and a mortality at 3.125 ppm (Ctenocephalides felis; 24 h, Rep1) of 0%. It also gave a mortality at 3.125 ppm (Ctenocephalides felis; 24 h, Rep2) of 0%, a mortality at 12.5 ppm (Ctenocephalides felis; 24 h, Rep1) of 80% and a mortality at 12.5 ppm (Ctenocephalides felis; 24 h, Rep2) of 40%. The mortality at 50 ppm (Ctenocephalides felis; 24 h, Rep1) was 100%, the mortality at 50 ppm (Ctenocephalides felis; 24 h, Rep2) was 100% and the mortality at 0.003 ppm (Ctenocephalides felis; 48 h, Rep1) was 0%. The mortality at 0.003 ppm (Ctenocephalides felis; 48 h, Rep2) was 0%, the mortality at 0.012 ppm (Ctenocephalides felis; 48 h, Rep1) was 0% and the mortality at 0.012 ppm (Ctenocephalides felis; 48 h, Rep2) was 0%. For the same compound, the mortality at 0.049 ppm (Ctenocephalides felis; 48 h, Rep1) was 0%, the mortality at 0.049 ppm (Ctenocephalides felis; 48 h, Rep2) was 0% and the mortality at 0.2 ppm (Ctenocephalides felis; 48 h, Rep1) was 0%. It also gave a mortality at 0.2 ppm (Ctenocephalides felis; 48 h, Rep2) of 0%, a mortality at 0.78 ppm (Ctenocephalides felis; 48 h, Rep1) of 0% and a mortality at 0.78 ppm (Ctenocephalides felis; 48 h, Rep2) of 0%. For the same compound, the mortality at 3.125 ppm (Ctenocephalides felis; 48 h, Rep1) was 0%, the mortality at 3.125 ppm (Ctenocephalides felis; 48 h, Rep2) was 0% and the mortality at 12.5 ppm (Ctenocephalides felis; 48 h, Rep1) was 90%. For the same compound, the mortality at 12.5 ppm (Ctenocephalides felis; 48 h, Rep2) was 60%, the mortality at 50 ppm (Ctenocephalides felis; 48 h, Rep1) was 100% and the mortality at 50 ppm (Ctenocephalides felis; 48 h, Rep2) was 100%.

— patent US10807992B2, “Single enantiomer antiparasitic compounds” (priority 2017, dated 2020)
